In ChEMBL document CHEMBL3400043, “Design, synthesis and biological evaluation of GY3-based derivatives for anti-type 2 diabetes activity” (Bioorg Med Chem Lett, 2015):
Activity calls are given as the source filed them. The calls are words filed in the database; no cut-off is given here.

How the values were obtained:
HepG2 [1] = assay: Induction of glucose consumption in human HepG2 cells at 10^-5 M after 24 hrs by glucose oxidase method (reference value: 2 +/- 0.09 mM); format: functional
HepG2 [2] = assay: Induction of glucose consumption in human HepG2 cells at 10^-5 M after 24 hrs by glucose oxidase method relative to control; format: functional
[3] = biological target: T1, Peroxisome proliferator-activated receptor gamma (Homo sapiens) (UniProt P37231); assay: Agonist activity at human PPARgamma expressed in U2OS cells coexpressing human RXR assessed as luciferase activity at 10 uM after 24 hrs by transactivation assay relative to control; format: cell-based
T1 sequence (whole entry): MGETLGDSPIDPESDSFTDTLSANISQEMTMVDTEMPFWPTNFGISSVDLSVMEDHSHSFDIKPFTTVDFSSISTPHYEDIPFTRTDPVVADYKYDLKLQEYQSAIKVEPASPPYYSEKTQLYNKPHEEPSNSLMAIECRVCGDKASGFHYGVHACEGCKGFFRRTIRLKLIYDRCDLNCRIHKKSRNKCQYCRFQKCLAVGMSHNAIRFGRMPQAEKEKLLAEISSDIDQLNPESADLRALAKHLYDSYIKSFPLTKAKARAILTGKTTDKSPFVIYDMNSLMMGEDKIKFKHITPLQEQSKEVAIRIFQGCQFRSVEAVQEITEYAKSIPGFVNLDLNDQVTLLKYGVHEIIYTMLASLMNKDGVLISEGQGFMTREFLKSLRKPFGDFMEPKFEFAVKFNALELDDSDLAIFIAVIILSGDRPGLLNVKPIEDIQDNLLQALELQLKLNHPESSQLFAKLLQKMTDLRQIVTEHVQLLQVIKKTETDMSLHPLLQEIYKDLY

HepG2 [4] = assay: Induction of glucose consumption in human HepG2 cells at 10^-6 M after 24 hrs by glucose oxidase method relative to control; format: functional
HepG2 [5] = assay: Induction of glucose consumption in human HepG2 cells at 10^-7 M after 24 hrs by glucose oxidase method relative to control; format: functional
Mus musculus [6] = assay: Toxicity in eight week old female db/db mouse assessed as effect on body weight at 30 mg/kg, intragastric for 3 weeks; format: organism-based; parameters: dose 30 mg/kg, route intragastric; details: in vivo, po, 504 h
Mus musculus [7] = assay: Hypoglycemic effect in eight week old female db/db mouse assessed as reduction in blood glucose level at 30 mg/kg, intragastric for 1 week; format: functional; details: po, 168 h
Mus musculus [8] = assay: Hypoglycemic effect in eight week old female db/db mouse assessed as reduction in blood glucose level at 30 mg/kg, intragastric for 3 weeks; format: functional; details: po, 504 h
Mus musculus [9] = assay: Reduction in total cholesterol level in eight week old female db/db mouse at 30 mg/kg, intragastric for 3 weeks; format: functional, organism-based; parameters: dose 30 mg/kg
HepG2 [10] = assay: Induction of glucose consumption in human HepG2 cells at 10^-3 M after 24 hrs by glucose oxidase method relative to control; format: functional
HepG2 [11] = assay: Induction of glucose consumption in human HepG2 cells at 10^-3 M after 24 hrs by glucose oxidase method (reference value: 2 +/- 0.09 mM); format: functional
Mus musculus [12] = assay: Hypoglycemic effect in eight week old female db/db mouse assessed as reduction in blood glucose level at 30 mg/kg, intragastric for 2 weeks; format: functional; details: po, 336 h
Mus musculus [13] = assay: Toxicity in eight week old female db/db mouse assessed as body weight increase at 30 mg/kg, intragastric for 3 weeks; format: organism-based; parameters: dose 30 mg/kg, route intragastric; details: in vivo, po, 504 h
Mus musculus [14] = assay: Hypoglycemic effect in eight week old female db/db mouse assessed as reduction in fasting triglyceride level at 30 mg/kg, intragastric for 3 weeks; format: functional, organism-based; parameters: dose 30 mg/kg

`C[C@@H]1[C@@H](CC(=O)O)c2cc(OCc3ccccc3)ccc2N1C(=O)c1ccccc1` showed an Activity (HepG2 [1]) of 2.14 mM, an Activity (HepG2 [2]) of 6.9% and a Ratio [3] of 2.05.

Work on `C[C@@H]1[C@@H](CC(=O)O)c2cc(OCc3ccccc3)ccc2N1S(=O)(=O)c1ccc(Cl)cc1` yielded an Activity (HepG2 [1]) of 2.33 mM, an Activity (HepG2 [2]) of 16.3% and a Ratio [3] of 2.37.

`C[C@@H]1[C@@H](CC(=O)O)c2cc(OCc3ccccc3)ccc2N1C(=O)c1ccc(C(F)(F)F)cc1` showed an Activity (HepG2 [1]) of 2.2 mM, an Activity (HepG2 [2]) of 9.8% and a Ratio [3] of 1.72.

For `CC(Oc1ccc2c(c1)[C@H](CC(=O)O)[C@@H](C)N2C(=O)c1ccc(Cl)cc1)c1ccccc1` (stereo partly drawn), the Activity (HepG2 [1]) was 2.2 mM, the Activity (HepG2 [2]) was 9.8% and the Ratio [3] was 1.66.

`C[C@@H]1[C@@H](CC(=O)O)c2cc(OCc3ccccc3)ccc2N1C(=O)Cc1ccc(Cl)cc1` showed an Activity (HepG2 [1]) of 2.35 mM, an Activity (HepG2 [2]) of 17% and a Ratio [3] of 2.2.

`C[C@H]1[C@@H](CC(=O)O)c2cc(OCc3ccccc3)ccc2N1C(=O)c1ccc(Cl)cc1` was tested, and the Activity (HepG2 [1]) was 2.01 mM, the Activity (HepG2 [2]) was 0.6% and the Ratio [3] was 1.72.

Compound `Cc1c(CCC(=O)O)c2cc(OCc3ccccc3)ccc2n1C(=O)c1ccc(Cl)cc1` has an Activity (HepG2 [1]) of 2.53 mM, an Activity (HepG2 [2]) of 26.1% and a Ratio [3] of 2.72. For the same compound, the Activity (HepG2 [4]) was 14.1%, the Activity (HepG2 [5]) was 19.2% and the Activity (Mus musculus [6]) was “Non-toxic”.

`C[C@@H]1[C@@H](CC(=O)O)c2cc(OCc3ccccc3)ccc2N1C(=O)c1ccc(Cl)cc1` showed an Activity (HepG2 [1]) of 2.4 mM, an Activity (HepG2 [2]) of 20% and a Ratio [3] of 3.51.

`C[C@@H]1[C@@H](CC(=O)O)c2cc(OCc3ccccc3)ccc2N1C(=O)C12CC3CC(CC(C3)C1)C2` showed an Activity (HepG2 [1]) of 2.1 mM, an Activity (HepG2 [2]) of 4.8% and a Ratio [3] of 1.63. The Activity (Mus musculus [6]) was “Non-toxic”.

In the case of `CN(CCOc1ccc(CC2SC(=O)NC2=O)cc1)c1ccccn1` (stereo not drawn) [ROSIGLITAZONE], the Activity (HepG2 [1]) is reported as 2.53 mM and the Activity (HepG2 [2]) is reported as 26.5%.

For `Cc1c(CCCC(=O)O)c2cc(OCc3ccccc3)ccc2n1C(=O)c1ccc(Cl)cc1`, the Activity (HepG2 [1]) was 2.55 mM, the Activity (HepG2 [2]) was 27.3% and the Ratio [3] was 3.28. The Activity (HepG2 [4]) was 8.3%, the Activity (HepG2 [5]) was 12.5% and the Activity (Mus musculus [6]) was “Non-toxic”.

In the case of `Cc1c(CCC(=O)O)c2cc(OCc3ccccc3)ccc2n1S(=O)(=O)c1ccc(Cl)cc1`, the Activity (HepG2 [1]) is reported as 2.45 mM, the Activity (HepG2 [2]) is reported as 22.1% and the Ratio [3] is reported as 2.48. It also gave an Activity (HepG2 [4]) of 10.5% and an Activity (HepG2 [5]) of 17.7%.

`Cc1c(CCCC(=O)O)c2cc(OCc3ccccc3)ccc2n1S(=O)(=O)c1ccc(Cl)cc1` was tested, and the Activity (HepG2 [1]) was 2.78 mM, the Activity (HepG2 [2]) was 38.9% and the Ratio [3] was 2.44. It also gave an Activity (HepG2 [4]) of 15.3%, an Activity (HepG2 [5]) of 18.2% and an inhibition in vivo at 30 mg/kg (Mus musculus [7]) of over 25%. The inhibition in vivo at 30 mg/kg (Mus musculus [8]) was 13.9%, the Activity (Mus musculus [6]) was “Non-toxic” and the inhibition (Mus musculus [9]) was “Active”.

With `COc1ccc(C(=O)N2c3ccc(OCc4ccccc4)cc3[C@H](CC(=O)O)[C@H]2C)cc1` the Activity (HepG2 [1]) was 2.22 mM, the Activity (HepG2 [2]) was 10.8% and the Ratio [3] was 2.14.

`C[C@@H]1[C@@H](CC(=O)O)c2cc(OCc3ccccc3)ccc2N1C(=O)c1ccc(F)cc1` was tested, and the Activity (HepG2 [1]) was 2.24 mM, the Activity (HepG2 [2]) was 11.6% and the Ratio [3] was 1.74.

`CN(C)C(=N)NC(=N)N` [METFORMIN] was tested, and the Activity (HepG2 [10]) was 51% and the Activity (HepG2 [11]) was 3.03 mM.

For `C[C@@H]1[C@@H](CC(=O)O)c2cc(OCc3ccccc3)ccc2N1C(=O)c1ccc(C#N)cc1`, the Activity (HepG2 [1]) was 2.26 mM, the Activity (HepG2 [2]) was 12.6% and the Ratio [3] was 2.05.

Work on `C[C@@H]1[C@@H](CC(=O)O)c2cc(OCc3cccnc3)ccc2N1C(=O)c1ccc(Cl)cc1` yielded an Activity (HepG2 [1]) of 1.87 mM, an Activity (HepG2 [2]) of -6.7% and a Ratio [3] of 1.62.

With `C[C@@H]1[C@@H](CC(=O)O)c2cc(OCc3ccncc3)ccc2N1C(=O)c1ccc(Cl)cc1` the Activity (HepG2 [1]) was 1.7 mM, the Activity (HepG2 [2]) was -15.4% and the Ratio [3] was 1.49.

Work on `Cc1c(CC(=O)O)c2cc(OCc3ccccc3)ccc2n1C(=O)c1ccc(Cl)cc1` yielded an Activity (HepG2 [1]) of 2.44 mM, an Activity (HepG2 [2]) of 21.9% and a Ratio [3] of 3.82. For the same compound, the inhibition in vivo at 30 mg/kg (Mus musculus [7]) was over 25%, the inhibition in vivo at 30 mg/kg (Mus musculus [12]) was over 30% and the inhibition in vivo at 30 mg/kg (Mus musculus [8]) was 13.5%.

For `CCc1ccc(CCOc2ccc(CC3SC(=O)NC3=O)cc2)nc1` (stereo not drawn) [PIOGLITAZONE], the inhibition in vivo at 30 mg/kg (Mus musculus [7]) was over 25%, the inhibition in vivo at 30 mg/kg (Mus musculus [12]) was over 30% and the inhibition in vivo at 30 mg/kg (Mus musculus [8]) was 30.6%. For the same compound, the Activity (Mus musculus [13]) was 16.3% and the inhibition (Mus musculus [14]) was “Active”.

Compound `C[C@@H]1[C@@H](CC(=O)O)c2cc(OCCCCc3ccccc3)ccc2N1C(=O)c1ccc(Cl)cc1` has an Activity (HepG2 [1]) of 1.98 mM, an Activity (HepG2 [2]) of -1.2% and a Ratio [3] of 1.81.

`C[C@@H]1[C@@H](CC(=O)O)c2cc(OCc3ccccc3)ccc2N1C(=O)c1ccncc1` showed an Activity (HepG2 [1]) of 2.46 mM, an Activity (HepG2 [2]) of 22.6% and a Ratio [3] of 1.73. The Activity (HepG2 [4]) was -4.6%, the Activity (HepG2 [5]) was -4.1% and the inhibition in vivo at 30 mg/kg (Mus musculus [12]) was over 30%. For the same compound, the inhibition in vivo at 30 mg/kg (Mus musculus [8]) was 14.9% and the inhibition (Mus musculus [14]) was “Active”.

With `C[C@@H]1[C@@H](CC(=O)O)c2cc(OCCc3ccccc3)ccc2N1C(=O)c1ccc(Cl)cc1` the Activity (HepG2 [1]) was 2.05 mM, the Activity (HepG2 [2]) was 2.1% and the Ratio [3] was 2.

Work on `COc1ccc(CC(=O)N2c3ccc(OCc4ccccc4)cc3[C@H](CC(=O)O)[C@H]2C)cc1OC` yielded an Activity (HepG2 [1]) of 2.2 mM, an Activity (HepG2 [2]) of 9.9% and a Ratio [3] of 2.
